Assays:
Assay in all cases: relative viability (nuclei count vs DMSO), 5 days (fraction); higher = more cells survive
Carboplatin + AZD7762 = compound: C1CC(C1)(C(=O)O)C(=O)O.[NH2-].[NH2-].[Pt+2] [Carboplatin] + NC(=O)Nc1cc(-c2cccc(F)c2)sc1C(=O)N[C@H]1CCCNC1 [AZD7762] (partner 0.2 µM)
Outline: (§1)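 Lung cancer cell lines in 1536-well plates got either a single drug or a fixed anchor-drug dose together with five library-drug doses (not always all listed) in √10 steps, by pin tool, on the day after seeding. Nuclei were counted after 5 days, and relative viability is the treated-to-vehicle ratio of nuclei counts. Values are medians of duplicate plates.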

GSK126 + Palbociclib = compound: CC[C@H](C)N1C=C(C2=C(C=C(C=C21)C3=CN=C(C=C3)N4CCNCC4)C(=O)NCC5=C(C=C(NC5=O)C)C)C [GSK126] + CC(=O)c1c(C)c2cnc(Nc3ccc(N4CCNCC4)cn3)nc2n(C2CCCC2)c1=O [Palbociclib] (partner 0.5 µM)
Outline: as §1

GSK126 + Linsitinib = compound: CC[C@H](C)N1C=C(C2=C(C=C(C=C21)C3=CN=C(C=C3)N4CCNCC4)C(=O)NCC5=C(C=C(NC5=O)C)C)C [GSK126] + C[C@]1(O)C[C@@H](c2nc(-c3ccc4ccc(-c5ccccc5)nc4c3)c3c(N)nccn32)C1 [Linsitinib] (partner 1 µM)
Outline: as §1

MLN4924 + Palbociclib = compound: NS(=O)(=O)OC[C@@H]1C[C@@H](n2ccc3c(N[C@H]4CCc5ccccc54)ncnc32)C[C@@H]1O [MLN4924] + CC(=O)c1c(C)c2cnc(Nc3ccc(N4CCNCC4)cn3)nc2n(C2CCCC2)c1=O [Palbociclib] (partner 0.5 µM)
Outline: as §1

Cell Line | relative viability (Carboplatin + AZD7762; first compound 0.08 µM) | relative viability (Carboplatin + AZD7762; first compound 0.253 µM) | relative viability (Carboplatin + AZD7762; first compound 0.8 µM) | relative viability (Carboplatin + AZD7762; first compound 2.53 µM) | relative viability (Carboplatin + AZD7762; first compound 8 µM) | relative viability (GSK126 + Palbociclib; first compound 0.08 µM) | relative viability (GSK126 + Palbociclib; first compound 0.253 µM) | relative viability (GSK126 + Palbociclib; first compound 0.8 µM) | relative viability (GSK126 + Palbociclib; first compound 2.53 µM) | relative viability (GSK126 + Palbociclib; first compound 8 µM) | relative viability (GSK126 + Linsitinib; first compound 0.08 µM) | relative viability (GSK126 + Linsitinib; first compound 0.253 µM) | relative viability (GSK126 + Linsitinib; first compound 0.8 µM) | relative viability (GSK126 + Linsitinib; first compound 2.53 µM) | relative viability (GSK126 + Linsitinib; first compound 8 µM) | relative viability (MLN4924 + Palbociclib; first compound 0.04 µM) | relative viability (MLN4924 + Palbociclib; first compound 0.1265 µM) | relative viability (MLN4924 + Palbociclib; first compound 0.4 µM) | relative viability (MLN4924 + Palbociclib; first compound 1.265 µM) | relative viability (MLN4924 + Palbociclib; first compound 4 µM)
HCC-44 | 1.06 | 1.03 | 1.02 | 1.01 | 0.992 | 0.96 | 1.04 | 1.01 | 0.916 | 0.894 | 0.681 | 0.692 | 0.659 | 0.7 | 0.715 | 1 | 0.756 | 0.793 | 0.636 | 0.45
HCC-78 | 0.744 | 0.712 | 0.656 | 0.693 | 0.644 | 0.473 | 0.38 | 0.497 | 0.461 | 0.492 | 0.662 | 0.547 | 0.518 | 0.465 | 0.47 | 0.52 | 0.462 | 0.472 | 0.422 | 0.418
HCC-366 | 0.442 | 0.256 | 0.155 | 0.126 | 0.0971 | 0.391 | 0.399 | 0.425 | 0.407 | 0.374 | 0.684 | 0.634 | 0.602 | 0.678 | 0.846 | 0.389 | 0.374 | 0.336 | 0.167 | 0.0328
HCC-827 | 0.245 | 0.204 | 0.213 | 0.182 | 0.223 | 0.492 | 0.54 | 0.486 | 0.483 | 0.469 | 1.03 | 0.965 | 0.948 | 0.875 | 0.964 | 0.35 | 0.325 | 0.317 | 0.173 | 0.148
HOP-62 | 0.793 | 0.665 | 0.669 | 0.608 | 0.497 | 0.501 | 0.372 | 0.468 | 0.398 | 0.444 | 1.05 | 0.979 | 0.856 | 0.926 | 0.899 | 0.367 | 0.185 | 0.0998 | 0.0286 | 0.0302
LC-2-ad | 0.922 | 0.829 | 0.854 | 0.851 | 0.78 | 0.497 | 0.489 | 0.479 | 0.481 | 0.478 | 0.874 | 0.905 | 0.849 | 0.899 | 0.839 | 0.443 | 0.427 | 0.432 | 0.233 | 0.196
LCLC-97TM1 | 0.221 | 0.336 | 0.367 | 0.163 | 0.228 | 0.283 | 0.265 | 0.232 | 0.308 | 0.255 | 0.164 |  | 0.179 | 0.225 | 0.204 | 0.185 | 0.114 | 0.0981 | 0.0625 | 0.0723
LCLC-103H | 0.853 | 0.763 | 0.802 | 0.806 | 0.806 | 0.452 | 0.546 | 0.466 | 0.441 | 0.5 | 1.13 | 1.16 | 1.06 | 1.07 | 1.08 | 0.47 | 0.421 | 0.352 | 0.265 | 0.32
LK-2 | 0.712 | 0.582 | 0.341 | 0.412 | 0.497 | 0.682 | 0.657 | 0.738 | 0.558 | 0.681 | 0.397 | 0.485 | 0.626 | 0.944 | 0.352 | 0.508 | 0.342 | 0.284 | 0.138 | 0.161
LOU-NH91 | 0.824 | 0.761 | 0.751 | 0.764 | 0.773 | 0.449 | 0.541 | 0.523 | 0.536 | 0.57 | 0.975 | 0.884 | 0.924 | 0.977 | 0.973 | 0.494 | 0.521 | 0.532 | 0.426 | 0.413
LU99A | 0.425 | 0.405 | 0.349 | 0.243 | 0.196 | 0.444 | 0.439 | 0.379 | 0.39 | 0.451 | 0.52 | 0.513 | 0.605 | 0.503 | 0.652 | 0.414 | 0.333 | 0.318 | 0.163 | 0.125
LXF-289 | 1.17 | 1.16 | 1.07 | 1.06 | 1.03 | 0.586 | 0.625 | 0.588 | 0.602 | 0.629 | 1.02 | 1 | 0.995 | 0.915 | 1 | 0.568 | 0.458 | 0.472 | 0.194 | 0.112
NCI-H23 | 0.264 | 0.263 | 0.243 | 0.188 | 0.23 | 0.6 | 0.583 | 0.565 | 0.628 | 0.515 | 0.63 | 0.528 | 0.442 | 0.592 | 0.725 | 0.478 | 0.441 | 0.26 | 0.175 | 0.2
NCI-H322M | 0.598 | 0.548 | 0.553 | 0.547 | 0.428 | 0.568 | 0.488 | 0.505 | 0.485 | 0.45 | 0.953 | 0.949 | 0.884 | 1.01 | 0.937 | 0.56 | 0.656 | 0.504 | 0.389 | 0.395
NCI-H358 | 0.732 | 0.514 | 0.516 | 0.575 | 0.561 | 0.13 | 0.131 | 0.12 | 0.146 | 0.136 | 0.939 | 0.768 | 0.785 | 0.675 | 0.738 | 0.127 | 0.16 | 0.115 | 0.0864 | 0.0788
NCI-H441 | 1.26 | 1.11 | 0.954 | 0.995 | 0.804 | 0.193 | 0.232 | 0.21 | 0.243 | 0.257 | 0.684 | 0.583 | 0.599 | 0.578 | 0.651 | 0.236 | 0.224 | 0.165 | 0.104 | 0.101

— the supplement of paper PMC10307832
